Results from paper PMC6770006, “Novel Heat Shock Protein 90 Inhibitors Suppress P-Glycoprotein Activity and Overcome Multidrug Resistance in Cancer Cells” (International Journal of Molecular Sciences, 2019).

Assays:
[1] = system: DLD1-TxR cells; assay: MTT assay, cell growth inhibition, DLD1-TxR (MDR); assay type: cell-based, human; conditions: 72 h; for IC50: Homo sapiens, MDR cells
Method: (§1) A series of 3-aryl-naphtho[2,3-d]isoxazole-4,9-diones were synthesized (Scheme 1, Figure 1) and their growth inhibition activity was tested in vitro on human non-small cell lung carcinoma NCI-H460, colorectal carcinoma DLD1 and their corresponding MDR cells (NCI-H460/R and DLD1-TxR, respectively), as well as normal embryonic lung fibroblasts MRC-5. The differences in cell growth inhibition between cancer and normal cells obtained by the MTT assay after 72 h treatment are presented in Table 1. The effect of compounds is presented as IC50 values that correspond to the 50% of cell growth inhibition.
(§2) Human colorectal carcinoma (DLD1), non-small cell lung carcinoma (NCI-H460), and normal embryonic lung fibroblast (MRC-5) cell lines were purchased from the American Type Culture Collection, Rockville, MD. P-gp overexpressing multidrug resistant DLD1-TxR cells were selected by continuous exposure to stepwise increasing concentrations of paclitaxel from DLD1 cells, while NCI-H460/R cells were selected from NCI-H460 cells after DOX selective pressure. MDR cancer cell lines, DLD1-TxR and NCI-H460/R, and their sensitive counterparts were maintained in RPMI 1640 medium supplemented with 10% FBS, 2 mM L-glutamine, and 10,000 U/mL penicillin, 10 mg/mL streptomycin, 25 mg/mL amphotericin B solutions. MRC-5 cells were cultured in DMEM supplemented with 10% FBS, 4 g/L glucose, 2 mM L-glutamine and 5000 U/mL penicillin, 5 mg/mL streptomycin solution. All cell lines were sub-cultured at 72 h intervals using 0.25% trypsin/EDTA and seeded into a fresh medium at 8000 cells/cm^2. All cell lines were maintained at 37 °C in a humidified 5% CO2 atmosphere.
(§3) Cell viability was assessed by the MTT assay (AppliChem GmbH, Darmstadt, Germany). Cells grown in 25 cm^2 tissue flasks were trypsinized and 1000 cells/well were seeded into flat-bottomed 96-well tissue culture plates and incubated overnight. Subsequently, the cells were treated with increasing concentrations of Hsp90 inhibitors for 72 h: compound 3 (0.1–2.5 µM), compound 4 (0.25–5 µM), compound 5 (0.5–25 µM), compound 6 (50–1000 nM), compound 7 (10–250 nM), compound 8 (0.25–5 µM), compound 9 (10–250 nM), compound 10 (0.5–25 µM), compound 13 (0.5–10 µM), compound 14 (1–25 µM), and compound 15 (10–250 nM). […] After treatment, MTT was added to each well in a final concentration of 0.2 mg/mL for 4 h. Formazan product was dissolved in 200 µl of DMSO, and the absorbance was measured at 540 nm using an automatic LKB 5060-006 Micro Plate Reader (Vienna, Austria). IC50 value was defined as a concentration of the drug that inhibited cell growth by 50% and was calculated by nonlinear regression analysis using GraphPad Prism 6.0 for Windows (La Jolla, CA, USA). Relative selectivity towards cancer cells was calculated as a relation between IC50 value obtained in MRC-5 cells and an average IC50 value from four tested cancer cell lines.

[2] = system: NCI-H460/R cells; assay: MTT assay, cell growth inhibition, NCI-H460/R (MDR); assay type: cell-based, human; conditions: for Efficacy in MDR NCI-H460/R cells compared with sensitive NCI-H460: 72 h; for IC50: Homo sapiens, NCI-H460, 72 h, MDR cells
Method: as §1, §2, §3

[3] = system: Hsp90; set-up: method as in PMID 22538015; conditions: read-out: Hsp90 Affinity binding; cited from earlier work
[4] = system: DLD1 cells; assay: MTT assay, cell growth inhibition, DLD1; assay type: cell-based; conditions: Homo sapiens, DLD-1, 72 h
Method: as §1, §3

[5] = system: NCI-H460, NCI-H460/R, DLD1, DLD1-TxR cells; assay: MTT assay, grouping of inhibitors by IC50 over the cancer cell lines; assay type: cell-based; conditions: Homo sapiens, Figure 2b, read-out: IC50 values (grouping for Pearson correlation)
Method: When the IC50 values obtained by the MTT assay were compared to Hsp90 affinity binding IC50 values (Table 1), a positive Pearson correlation (r > 0.5) was found for all cancer cell lines (Figure 2b).
as §3

[6] = molecular target: P-gp (Homo sapiens, UniProt P08183); assay: Rhodamine 123 accumulation assay (P-gp activity, flow cytometry); assay type: cell-based; set-up: P-gp overexpressing multidrug resistant DLD1-TxR cells were selected by continuous exposure to stepwise increasing concentrations of paclitaxel from DLD1 cells; endogenous in cells; host or cells: NCI-H460/R and DLD1-TxR (drug-selected MDR human cancer cells); conditions: 30 min, Figure 3a; for P-gp activity / Rho 123 accumulation: MDR NCI-H460/R and DLD1-TxR cells, one concentration per compound (100 nM-10 µM)
Method: To study the effect of Hsp90 inhibitors on P-gp activity in MDR cancer cells, intracellular accumulation of the P-gp substrate rhodamine 123 (Rho 123) was analyzed by flow cytometry after 30 min treatment (Figure 3a). A well-known inhibitor of P-gp activity, tariquidar (TQ), was included as a positive control.
The accumulation of Rho 123, a fluorescent P-gp substrate, was measured by flow cytometry. The intensity of the fluorescence is proportional to Rho 123 accumulation in the cell. All cell lines were seeded in adherent 6-well plates and grown overnight. DLD1-TxR and NCI-H460/R cells were treated for 30 min with the following concentrations of Hsp90 inhibitors: 500 nM compound 3, 1 µM compound 4, 10 µM compound 5, 500 nM compound 6, 500 nM compound 7, 1 µM compound 8, 500 nM compound 9, 1 µM compound 10, 1 µM compound 13, 10 µM compound 14, 100 nM compound 15. TQ (10 nM) was used as a positive control for Rho 123 accumulation. Rho 123 (5 μM) was simultaneously added with the investigated compounds and the cells were incubated at 37 °C in 5% CO2 for 30 min. The cells were then trypsinized, pelleted by centrifugation, washed with PBS and placed in ice-cold PBS. The samples were kept on ice in the dark until the analysis on CyFlow Space Partec flow cytometer (Sysmex Partec GmbH, Görlitz, Germany). The fluorescence of Rho 123 was detected on fluorescence channel 1 (FL1-H) at 530 nm. A minimum of 10,000 events were collected for each sample and the obtained results were analyzed using Summit software.

[7] = system: MRC-5 cells; assay: MTT assay, normal embryonic lung fibroblasts MRC-5; assay type: cell-based, human; conditions: for IC50: Homo sapiens, MRC5, MTT, 72 h, normal fibroblasts, read-out: Cell growth inhibition IC50, MRC-5
Method: as §1, §3

[8] = system: NCI-H460 cells; assay: MTT assay, cell growth inhibition, NCI-H460; assay type: cell-based; conditions: Homo sapiens, 72 h, three independent experiments
Method: as §1, §3

[9] = system: P-gp expression; assay: Flow cytometric analysis of P-gp expression; assay type: cell-based, human; conditions: 72 h; for Change in P-gp expression, DLD1 / Change in P-gp expression, NCI-H460: 5 µM 5, 200 nM 7, 100 nM 9, 10 nM TQ, 50 nM DOX, 50 nM PTX
Method: P-glycoprotein expression level in NCI-H460, NCI-H460/R, DLD1, and DLD1-TxR and cells was measured by flow cytometry. All cell lines were seeded in adherent 6-well plates and treated with Hsp90 inhibitors for 72 h at the following concentrations: 5 µM compound 5, 200 nM compound 7, 100 nM compound 9 (NCI-H460 and DLD1), and 10 µM compound 5, 500 nM compound 7, 500 nM compound 9 (NCI-H460/R and DLD1-TxR). Cells were also treated with 10 nM TQ, a non-competitive P-gp inhibitor, which served as a positive control. In addition, sensitive cells (NCI-H460 and DLD1) were treated with 50 nM DOX and 50 nM PTX that served as positive controls for the induction of P-gp expression. Then, cells were collected by trypsinization, washed with PBS, and directly immunostained by FITC-conjugated anti-P-gp antibody according to the manufacturer’s protocol. The samples were kept in the dark until the analysis on CyFlow Space Partec flow cytometer (Sysmex Partec GmbH, Görlitz, Germany). The fluorescence of FITC-conjugated anti-P-gp was detected on fluorescence channel 1 (FL1-H) at 530 nm. A minimum of 10,000 events were collected for each sample (the gate excluded cell debris and dead cells) and the obtained results were analyzed with Summit software v4.3 (Dako Colorado Inc., Fort Collins, CO, USA).

[10] = 10 µM 5, 500 nM 7, 500 nM 9, 10 nM TQ

Chain of P-gp (P08183 whole entry): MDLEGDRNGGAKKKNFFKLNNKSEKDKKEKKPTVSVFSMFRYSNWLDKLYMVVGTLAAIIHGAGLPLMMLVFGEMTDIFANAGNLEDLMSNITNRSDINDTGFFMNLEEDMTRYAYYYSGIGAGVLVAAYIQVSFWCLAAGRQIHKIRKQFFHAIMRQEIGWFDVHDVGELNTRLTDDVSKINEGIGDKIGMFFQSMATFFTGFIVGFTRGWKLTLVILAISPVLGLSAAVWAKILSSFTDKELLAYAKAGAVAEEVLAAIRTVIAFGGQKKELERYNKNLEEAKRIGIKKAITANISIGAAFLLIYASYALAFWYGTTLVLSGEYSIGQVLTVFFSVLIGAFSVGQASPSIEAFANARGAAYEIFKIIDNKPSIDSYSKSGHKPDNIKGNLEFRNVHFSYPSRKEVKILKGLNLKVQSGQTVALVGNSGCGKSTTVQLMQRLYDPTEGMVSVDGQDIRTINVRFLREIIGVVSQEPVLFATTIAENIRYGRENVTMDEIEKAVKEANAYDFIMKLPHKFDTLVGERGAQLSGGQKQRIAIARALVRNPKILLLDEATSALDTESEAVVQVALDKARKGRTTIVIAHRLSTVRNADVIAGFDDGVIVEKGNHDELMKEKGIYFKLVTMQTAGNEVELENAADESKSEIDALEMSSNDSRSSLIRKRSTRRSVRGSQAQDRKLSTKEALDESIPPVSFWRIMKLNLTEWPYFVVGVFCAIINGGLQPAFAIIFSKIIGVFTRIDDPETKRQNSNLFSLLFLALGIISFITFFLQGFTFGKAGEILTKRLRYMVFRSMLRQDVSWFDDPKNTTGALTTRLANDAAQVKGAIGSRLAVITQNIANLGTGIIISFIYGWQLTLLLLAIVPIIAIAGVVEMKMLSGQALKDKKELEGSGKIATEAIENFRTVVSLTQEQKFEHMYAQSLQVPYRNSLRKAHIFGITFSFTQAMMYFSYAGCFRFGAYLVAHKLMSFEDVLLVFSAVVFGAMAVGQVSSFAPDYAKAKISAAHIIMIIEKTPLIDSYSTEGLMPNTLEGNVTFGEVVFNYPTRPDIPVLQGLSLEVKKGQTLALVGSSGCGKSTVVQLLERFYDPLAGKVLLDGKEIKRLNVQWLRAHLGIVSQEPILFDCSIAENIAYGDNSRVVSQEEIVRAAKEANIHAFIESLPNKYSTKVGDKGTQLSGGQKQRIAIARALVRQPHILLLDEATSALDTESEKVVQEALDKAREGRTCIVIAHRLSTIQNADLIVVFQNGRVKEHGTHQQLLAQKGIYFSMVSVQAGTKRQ

With `O=C1c2ccccc2C(=O)c2c(-c3ccccn3)noc21` [Compound 10] the “Efficacy in MDR DLD1-TxR cells compared with sensitive DLD1” value (shortened to “Efficacy … compared with sensitive DLD1”) [1] was “collateral sensitivity”, the IC50 [1] was 1.79 ± 0.036 µM and the “Efficacy in MDR NCI-H460/R cells compared with sensitive NCI-H460” value (“Efficacy … compared with sensitive NCI-H460” for short) [2] was “overcame resistance”. The IC50 [2] was 1.375 ± 0.012 µM, the IC50 [3] was 1.06 µM and the IC50 [4] was 2.65 ± 0.035 µM. The IC50 [5] was at least 1 µM, the “P-gp activity / Rho 123 accumulation” value [6] was “reduction in activity” and the IC50 [7] was 0.257 ± 0.004 µM. For the same compound, the IC50 [8] was 1.27 ± 0.014 µM.

For `COc1cccc2c1C(=O)c1c(-c3ccncc3)noc1C2=O` [Compound 13], the “Efficacy … compared with sensitive DLD1” value [1] was “collateral sensitivity”, the IC50 [1] was 1 ± 0.016 µM and the “Efficacy … compared with sensitive NCI-H460” value [2] was “evaded resistance mechanisms”. The IC50 [2] was 1.06 ± 0.012 µM, the IC50 [3] was 1.9 µM and the IC50 [4] was 1.9 ± 0.036 µM. For the same compound, the IC50 [5] was at least 1 µM, the “P-gp activity / Rho 123 accumulation” value [6] was “decreased” and the IC50 [7] was 0.174 ± 0.004 µM. It also gave an IC50 [8] of 1.25 ± 0.028 µM.

In the case of `COc1cccc2c1C(=O)c1c(-c3cc[n+](Cc4ccccc4)cc3)noc1C2=O` [Compound 14], the “Efficacy … compared with sensitive DLD1” value [1] is reported as “further compromised in the presence of MDR phenotype in both cell lines”, the IC50 [1] is reported as 10.6 ± 0.27 µM and the “Efficacy … compared with sensitive NCI-H460” value [2] is reported as “further compromised in the presence of MDR phenotype in both cell lines”. The IC50 [2] was 23.6 ± 0.47 µM, the IC50 [3] was 0.34 µM and the IC50 [4] was 7.45 ± 0.212 µM. For the same compound, the IC50 [5] was at least 1 µM, the “P-gp activity / Rho 123 accumulation in DLD1-TxR” value ([6]; DLD1-TxR cells) was “partially restored” and the IC50 [7] was 53.3 ± 1.73 µM. The “Relative Selectivity” value ([7]; IC50 in MRC-5 cells / average IC50 of four cancer cell lines) was 5.00 and the IC50 [8] was 0.978 ± 0.018 µM.

In the case of `CC(=O)O[C@H]1C(=O)[C@@]2(C)[C@H]([C@H](OC(=O)c3ccccc3)[C@]3(O)C[C@H](OC(=O)[C@H](O)[C@@H](NC(=O)c4ccccc4)c4ccccc4)C(C)=C1C3(C)C)[C@]1(OC(C)=O)CO[C@@H]1C[C@@H]2O` [PTX, paclitaxel], the “Change in P-gp expression, DLD1” value [9] is reported as “significantly increased P-gp expression” and the “Change in P-gp expression, NCI-H460” value [9] is reported as “significantly increased P-gp expression”.

For `COc1cc2c(cc1OC)CN(CCc1ccc(NC(=O)c3cc(OC)c(OC)cc3NC(=O)c3cnc4ccccc4c3)cc1)CC2` [TQ, tariquidar], the “Change in P-gp expression, DLD1” value [9] was “increased P-gp expression”, the “Change in P-gp expression, NCI-H460” value [9] was “did not influence the P-gp expression” and the “Change in P-gp expression, DLD1-TxR” value [9, 10] was “increased P-gp expression”. The “Change in P-gp expression, NCI-H460/R” value [9, 10] was “did not influence the P-gp expression”.
